Assay results reported in ChEMBL document CHEMBL1201862, “PubChem BioAssay data set” (2004).
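Growth conditions: 96-well plates. Treatment: test compound, 48 hours, 5 concentrations. Analysis: linear interpolation between bracketing concentrations; unreached endpoints set to highest concentration. GI50 is the concentration that inhibits growth by half.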 Active and inactive are the calls of the source. Rule as the data show it: active = GI50 up to about 1.1 µM and inactive = higher.

Legend:
Assay in all cases: growth of human tumour cells (NCI), 48 h
HCT-116 = system: HCT-116
SF-295 = system: SF-295
OVCAR-5 = system: OVCAR-5
HT-29 = system: HT-29
786-0 = system: 786-0
U-251 = system: U-251
RPMI-8226 = system: RPMI-8226
KM12 = system: KM12
NCI-H522 = system: NCI-H522
SK-MEL-2 = system: SK-MEL-2
DMS-114 = system: DMS-114
DMS-273 = system: DMS-273
IGROV-1 = system: IGROV-1
OVCAR-8 = system: OVCAR-8
SK-OV-3 = system: SK-OV-3
HOP-62 = system: HOP-62
SNB-19 = system: SNB-19
NCI-H226 = system: NCI-H226
SK-MEL-5 = system: SK-MEL-5

Measured: GI50

COc1cccc2c1OC1Sc3ccccc3-c3nn(-c4ccccc4)c-2c31 (configuration not stated)
inactive: HCT-116 > 100 µM | SF-295 > 100 µM | OVCAR-5 > 100 µM | HT-29 > 100 µM | 786-0 > 100 µM | U-251 > 100 µM | RPMI-8226 > 100 µM | KM12 > 100 µM | NCI-H522 26.7 µM | SK-MEL-2 > 100 µM | DMS-114 > 100 µM | DMS-273 > 100 µM | IGROV-1 > 100 µM | OVCAR-8 > 100 µM | SK-OV-3 > 100 µM | HOP-62 > 100 µM

CN(C)CCNC(=O)c1cccc2[nH]c(-c3ccccc3)nc12
inactive: HCT-116 9.73 µM | SF-295 25.2 µM | OVCAR-5 15.7 µM | HT-29 19.8 µM | 786-0 36.3 µM | SNB-19 32.5 µM | U-251 25.4 µM | RPMI-8226 32.1 µM | NCI-H226 16.4 µM | KM12 22.4 µM | SK-MEL-2 18.5 µM | DMS-114 17.3 µM | DMS-273 14.5 µM | IGROV-1 21.7 µM | OVCAR-8 > 10 µM | SK-MEL-5 15.1 µM | SK-OV-3 17.3 µM | HOP-62 22.3 µM

CC1=C(c2cc(C(=O)Nc3nccs3)nc(NC#N)n2)Sc2ccccc2N1
inactive: HCT-116 > 100 µM | SF-295 > 100 µM | OVCAR-5 > 100 µM | HT-29 > 100 µM | 786-0 > 100 µM | SNB-19 > 100 µM | U-251 > 100 µM | RPMI-8226 > 100 µM | NCI-H226 > 100 µM | KM12 > 100 µM | NCI-H522 > 100 µM | SK-MEL-2 > 100 µM | DMS-273 > 100 µM | IGROV-1 > 100 µM | OVCAR-8 > 100 µM | SK-MEL-5 > 100 µM | HOP-62 > 100 µM

O=C(CSc1nnc(Cc2ccccc2)o1)Nc1cccc(Cl)c1
inactive: HCT-116 > 100 µM | SF-295 68.7 µM | OVCAR-5 > 100 µM | HT-29 66.2 µM | 786-0 96.8 µM | SNB-19 > 100 µM | U-251 > 100 µM | RPMI-8226 72.4 µM | NCI-H226 > 100 µM | KM12 > 100 µM | NCI-H522 40.9 µM | SK-MEL-2 70.8 µM | DMS-273 83 µM | IGROV-1 > 100 µM | OVCAR-8 > 100 µM | SK-MEL-5 76.7 µM | SK-OV-3 > 100 µM | HOP-62 > 100 µM

Cc1ccc(-c2c(N)[n+]([O-])c3ccccc3[n+]2[O-])cc1
inactive: SF-295 20 µM | OVCAR-5 17.9 µM | HT-29 12.3 µM | 786-0 13.5 µM | SNB-19 12.7 µM | U-251 14.3 µM | RPMI-8226 21.4 µM | NCI-H226 17.9 µM | KM12 11.9 µM | NCI-H522 1.55 µM | SK-MEL-2 8.51 µM | DMS-273 13.4 µM | IGROV-1 14.9 µM | OVCAR-8 23.4 µM | SK-MEL-5 11.4 µM | SK-OV-3 21.2 µM | HOP-62 17.1 µM

Cc1ccc2nc(N)[nH]c(=O)c2c1Sc1ccncc1
inactive: HCT-116 15.5 µM | SF-295 8.07 µM | OVCAR-5 91.2 µM | HT-29 > 100 µM | 786-0 12.2 µM | SNB-19 > 100 µM | U-251 > 51.1 µM | RPMI-8226 23.3 µM | KM12 > 51.6 µM | NCI-H522 17.8 µM | SK-MEL-2 > 100 µM | DMS-114 12.6 µM | DMS-273 37.2 µM | IGROV-1 > 71.6 µM | OVCAR-8 > 31.1 µM | SK-MEL-5 21.2 µM | SK-OV-3 > 30.6 µM | HOP-62 5.11 µM

O=c1nc(NC(c2ccccc2)(c2ccccc2)c2ccccc2)ccn1CCO
inactive: HCT-116 61.1 µM | SF-295 61.1 µM | OVCAR-5 > 100 µM | HT-29 60 µM | 786-0 > 100 µM | SNB-19 > 100 µM | U-251 > 100 µM | RPMI-8226 49.8 µM | NCI-H226 > 100 µM | KM12 60.3 µM | NCI-H522 51.5 µM | SK-MEL-2 > 100 µM | DMS-114 52.7 µM | IGROV-1 > 100 µM | OVCAR-8 > 100 µM | HOP-62 > 100 µM

CC(=O)c1c(O)ccc2c1CC(CC=O)O2 (configuration not stated)
inactive: HCT-116 19.7 µM | SF-295 > 100 µM | OVCAR-5 > 100 µM | HT-29 37.2 µM | 786-0 69.7 µM | SNB-19 > 100 µM | U-251 83.9 µM | RPMI-8226 45.3 µM | NCI-H226 > 100 µM | KM12 > 100 µM | NCI-H522 60.5 µM | DMS-114 20.1 µM | IGROV-1 > 100 µM | OVCAR-8 27.6 µM | SK-MEL-5 79.8 µM | SK-OV-3 > 100 µM | HOP-62 > 100 µM

C/C(=N\NC(=O)c1ccccc1O)c1c(O)cc(C)oc1=O
inactive: HCT-116 49.4 µM | SF-295 51.4 µM | OVCAR-5 73.3 µM | HT-29 > 100 µM | 786-0 > 100 µM | SNB-19 63.5 µM | U-251 37.7 µM | RPMI-8226 50.4 µM | NCI-H226 34.3 µM | KM12 > 100 µM | NCI-H522 32.7 µM | SK-MEL-2 > 100 µM | DMS-114 90.6 µM | IGROV-1 34.2 µM | OVCAR-8 68.2 µM | SK-MEL-5 43.8 µM | SK-OV-3 17.4 µM | HOP-62 98.6 µM

O=C(O)CCSC(=O)Nc1ccccc1Cl
inactive: HCT-116 > 100 µM | SF-295 > 100 µM | OVCAR-5 > 100 µM | HT-29 > 100 µM | 786-0 > 100 µM | SNB-19 > 100 µM | U-251 > 100 µM | RPMI-8226 > 100 µM | NCI-H226 > 100 µM | KM12 51.2 µM | DMS-114 > 100 µM | DMS-273 > 100 µM | IGROV-1 > 100 µM | OVCAR-8 > 100 µM | SK-MEL-5 > 100 µM | SK-OV-3 > 100 µM | HOP-62 > 100 µM

CCCCCCCCCCCCNC(=S)OCCCC
inactive: HCT-116 50.7 µM | SF-295 > 100 µM | OVCAR-5 31.8 µM | HT-29 72.3 µM | 786-0 > 100 µM | SNB-19 > 100 µM | U-251 63.7 µM | RPMI-8226 15.7 µM | KM12 28 µM | NCI-H522 > 100 µM | SK-MEL-2 17.2 µM | DMS-114 34.8 µM | DMS-273 > 100 µM | IGROV-1 > 100 µM | OVCAR-8 > 100 µM | SK-MEL-5 81.3 µM | SK-OV-3 > 100 µM | HOP-62 > 100 µM

COc1cc2c(cc1OC)/C(=C\c1ccccc1N)C(=O)OC2
inactive: SF-295 15.1 µM | OVCAR-5 20 µM | HT-29 11.8 µM | 786-0 3.07 µM | SNB-19 16.7 µM | U-251 18.5 µM | RPMI-8226 1.84 µM | KM12 13.9 µM | NCI-H522 1.56 µM | SK-MEL-2 12.1 µM | DMS-114 16.3 µM | DMS-273 10.7 µM | IGROV-1 18.6 µM | OVCAR-8 > 10 µM | SK-MEL-5 17.8 µM | SK-OV-3 27.7 µM | HOP-62 23.3 µM
